Patent US9675699B2, “Cooling enhancing compositions” (International Flavors & Fragrances Inc., priority 2011, dated 2017)

How the values were obtained:
[1] = tested on: cooling profile of menthol; test: Example II: cooling profile versus 5 ppm menthol control, group of five trained panelists; type: in vivo, human; conditions: for Average Increase: versus 5 ppm menthol control
Procedure: Responsible actives were determined by comparing the cooling profile of menthol alone (the control) against the solutions with either menthol or cooling enhancing compositions or menthol with the active(s). The profile attributes consist of onset, location, intensity and duration of cooling. Control: 5mg menthol/1 Liter of water (=5 ppm) The use level of 5 ppm is a standard use level within our research facility when looking for cooling enhancement. The levels of the actives were determined after tasting them at varying concentrations within the range of 1 ppm to 200 ppm. The levels presented were deemed to be optimal by offering the greatest functionality. The cooling enhancing compositions listed below were dosed on top of the menthol control. The results below were obtained by a group of five trained panelists.)

cooling = test: Inherent cooling of materials tasted alone in water; type: in vivo, human
cooling strength = conditions: with respect to WS-3 = 10.0; cited from earlier work
[2] = 5 ppm Menthol + 50 ppm test substance in water
[3] = 5 ppm Menthol + 50 ppm test substance

O=C1C[C@@H](c2ccc(O)c(O)c2)Oc2cc(O)cc(O)c21 [Eriodictyol]
Taste Descriptors [1, 2]: Cooling localized on middle of tongue stronger than control, more intense in back of throat on breath-in, does not trigger a faster onset, cooling builds more after expectorating and on breath-in, sharpened the intensity of cooling in the center and sides of tongue and roof of mouth
Average Increase [1, 3]: 56%
inherent cooling (taste observation) (cooling; 35 ppm in water): slight irritation (piperin-like burn) without cooling

COc1ccc([C@@H]2CC(=O)c3c(O)cc(O)cc3O2)cc1O [Hesperetin]
Taste Descriptors [1, 2]: Sweet, no impact on cooling, slightly bitter, drying, cooling is delocalized and about the same strength as control
Average Increase [1, 3]: 0%

COc1cc([C@@H]2CC(=O)c3c(O)cc(O)cc3O2)ccc1O [Homoeriodictyol]
Taste Descriptors ([1]; 5 ppm Menthol + 5 ppm test substance in water): faster onset of cooling than menthol alone, cooling localized on front of tongue, cold as in temperature, slight teeth cooling, fully delocalized cooling after 10 seconds reaching back of throat and roof of mouth, mild cooling on breath-in, diminished menthol burn
Average Increase ([1]; 5 ppm Menthol + 5 ppm test substance): 66%
inherent cooling (taste observation) (cooling; 5 ppm in water): taste neutral, slightly drying, no cooling
inherent cooling (taste observation) (cooling; 25 ppm in water): drying, not cooling

O=c1cc(-c2ccc(O)c(O)c2)oc2cc(O)cc(O)c12 [Luteolin]
Taste Descriptors [1, 2]: Equivalent cooling as compared to control, localized on front tip of tongue, gums and roof of mouth, did not expedite onset but smoothed upfront mouthfeel, slight irritation to tongue and back of mouth/ throat cavity
Average Increase [1, 3]: 32%
inherent cooling (taste observation) (cooling; 50 ppm in water): slightly stale flavor, no cooling

CC1CCC(C(C)C)C(O)C1 (stereo not drawn) [Menthol]
Taste Descriptors ([1]; 5 ppm Menthol alone in water (control)): thin and moderate cooling, slight burn, some bitterness, cooling on front, tip of tongue and gums, mild cooling on breath-in, slightly harsh and sharp

CC1CCC(C(C)C)C(OC(=O)C(C)O)C1 (stereo not drawn) [Menthyl Lactate]
relative cooling strength (cooling strength): about 2.9

CNC(=O)C1C(C)CCCC1(C)C (stereo not drawn) [N,2,2,6-Tetramethylcyclohexane-l-carboxamide]
relative cooling strength (cooling strength): about 1.0

CCNC(=O)C1CC(C)CCC1C(C)C (stereo not drawn) [WS-3]
relative cooling strength (cooling strength): 10.0

CCOC(=O)CNC(=O)[C@@H]1C[C@H](C)CC[C@H]1C(C)C [WS-5]
relative cooling strength (cooling strength): about 16.7

CC(C)[C@@H]1CC[C@@H](C)C[C@H]1C(=O)NC(C)(C)C [WS-14]
relative cooling strength (cooling strength): about 5.0

CNC(=O)C(C)(C(C)C)C(C)C [WS-23]
relative cooling strength (cooling strength): about 5.0

CC1CCC(C(C)C)C(C(=O)OCC(O)CO)C1 (stereo not drawn) [WS-30]
relative cooling strength (cooling strength): about 1.5

CC(C)[C@@H]1CC[C@@H](C)C[C@H]1OC(=O)CCCC(=O)O [monomenthyl glutarate]
relative cooling strength (cooling strength): about 3.5
